# Activity calls are given as the source filed them. No cut-off for these calls is given here.
# How the values were obtained:
# [1] = Protein binding in rhesus monkey plasma at 0.5 mg/kg, iv or 1 mg/kg, po by LC/MS/MS analysis; type: ADME, organism-based, Macaca mulatta; details: read-out: PPB (converted)
# [2] = target: Cytochrome P450 3A4 (Homo sapiens, UniProt P08684); assay: Inhibition of human CYP3A4; type: ADME
# [3] = AUC in rat at 1 mg/kg, iv by LC/MS/MS analysis; type: ADME, organism-based; details: in vivo
# [4] = test system: Mus musculus; assay: Decrease in insulin levels in diet-induced obese mouse at 30 mg/kg, po qd administered daily via gavage for 14 days measured on day 14 post dose; type: functional, organism-based
# [5] = Oral bioavailability in rat at 2 mg/kg by LC/MS/MS analysis; type: ADME, organism-based; details: in vivo
# [6] = target: T1, Peroxisome proliferator-activated receptor alpha (Homo sapiens) (UniProt Q07869); assay: Binding affinity to human PPARalpha
# T1 sequence (whole entry): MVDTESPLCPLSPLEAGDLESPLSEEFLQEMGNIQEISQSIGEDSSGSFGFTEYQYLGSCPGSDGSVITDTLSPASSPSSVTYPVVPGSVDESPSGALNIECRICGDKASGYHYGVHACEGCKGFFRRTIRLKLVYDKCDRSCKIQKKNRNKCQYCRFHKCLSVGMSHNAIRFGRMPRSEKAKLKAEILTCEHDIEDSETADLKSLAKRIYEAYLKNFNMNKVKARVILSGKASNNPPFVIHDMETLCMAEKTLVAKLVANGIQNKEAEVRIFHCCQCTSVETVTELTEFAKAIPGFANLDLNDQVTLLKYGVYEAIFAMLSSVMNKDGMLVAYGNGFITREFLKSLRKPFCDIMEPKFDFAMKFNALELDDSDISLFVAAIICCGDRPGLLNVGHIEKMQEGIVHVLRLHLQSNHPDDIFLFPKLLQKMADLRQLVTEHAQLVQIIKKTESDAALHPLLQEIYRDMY
# [7] = MRT in rat at 1 mg/kg, iv or 2 mg/kg, po by LC/MS/MS analysis; type: ADME, organism-based; details: in vivo
# [8] = AUC in mouse at 2 mg/kg, iv by LC/MS/MS analysis; type: ADME, organism-based; details: in vivo
# [9] = target: Cytochrome P450 2C9 (Homo sapiens, UniProt P11712); assay: Inhibition of human CYP2C9; type: ADME
# [10] = target: T2, Free fatty acid receptor 4 (Mus musculus, UniProt Q7TMA4); assay: Agonist activity at mouse GPR120 expressed in CHOK1 cells assessed as induction of IP1 accumulation after 60 mins by HTRF assay; type: functional, cell-based, CHO-K1
# T2 sequence (Q7TMA4 whole entry): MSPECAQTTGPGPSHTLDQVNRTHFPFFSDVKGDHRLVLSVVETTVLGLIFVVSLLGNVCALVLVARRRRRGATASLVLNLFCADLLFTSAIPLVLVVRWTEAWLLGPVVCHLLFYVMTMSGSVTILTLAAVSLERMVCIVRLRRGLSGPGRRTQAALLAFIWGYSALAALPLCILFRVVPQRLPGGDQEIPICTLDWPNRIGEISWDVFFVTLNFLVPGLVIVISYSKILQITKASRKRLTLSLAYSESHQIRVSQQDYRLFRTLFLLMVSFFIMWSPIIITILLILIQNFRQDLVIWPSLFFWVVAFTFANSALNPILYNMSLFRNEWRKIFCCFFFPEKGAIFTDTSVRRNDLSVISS
# [11] = Oral bioavailability in dog at 2 mg/kg by LC/MS/MS analysis; type: ADME, organism-based, Canis lupus familiaris; details: in vivo
# [12] = Half life in rhesus monkey at 0.5 mg/kg, iv or 1 mg/kg, po by LC/MS/MS analysis; type: ADME, organism-based, Macaca mulatta; details: in vivo
# [13] = Protein binding in rat plasma at 1 mg/kg, iv or 2 mg/kg, po by LC/MS/MS analysis; type: ADME, organism-based; details: read-out: PPB (converted)
# [14] = Volume of distribution at steady state in rhesus monkey at 0.5 mg/kg, iv or 1 mg/kg, po by LC/MS/MS analysis; type: ADME, organism-based, Macaca mulatta; details: in vivo, read-out: Vdss
# [15] = Antidiabetic activity in C57BL/6 mouse administered 60 mins via oral gavage prior to dextrose challenge measured up to 120 mins post dextrose challenge by oGTT; type: functional
# [16] = Antidiabetic activity in C57BL/6 mouse at 30 mg/kg, po administered 60 mins via gavage prior to dextrose challenge measured up to 120 mins post dextrose challenge by oGTT; type: functional, organism-based
# [17] = target: Cytochrome P450 2D6 (Homo sapiens, UniProt P10635); assay: Inhibition of human CYP2D6; type: ADME
# [18] = target: Voltage-dependent L-type calcium channel subunit alpha-1C (Homo sapiens, UniProt Q13936); assay: Inhibition of Cav1.2 (unknown origin)
# [19] = Plasma clearance in mouse at 2 mg/kg, iv or 10 mg/kg, po by LC/MS/MS analysis; type: ADME, organism-based
# [20] = Oral bioavailability in rhesus monkey at 1 mg/kg by LC/MS/MS analysis; type: ADME, organism-based, Macaca mulatta; details: in vivo
# [21] = Plasma clearance in dog at 1 mg/kg, iv or 2 mg/kg, po by LC/MS/MS analysis; type: ADME, organism-based, Canis lupus familiaris
# [22] = target: Sodium channel protein type 5 subunit alpha (Homo sapiens, UniProt Q14524); assay: Inhibition of Nav1.5 (unknown origin)
# [23] = test system: Mus musculus; assay: Antidiabetic activity in diet-induced obese mouse assessed as reduction in homeostatic model assessment of insulin resistance at 30 mg/kg, po qd administered daily via gavage for 28 days measured on day 28 post dose; type: functional, organism-based
# [24] = test system: Mus musculus; assay: Decrease in insulin levels in diet-induced obese mouse at 30 mg/kg, po qd administered daily via gavage for 28 days measured on day 28 post dose; type: functional, organism-based
# [25] = Half life in rat at 1 mg/kg, iv or 2 mg/kg, po by LC/MS/MS analysis; type: ADME, organism-based; details: in vivo
# [26] = MRT in dog at 1 mg/kg, iv or 2 mg/kg, po by LC/MS/MS analysis; type: ADME, organism-based, Canis lupus familiaris; details: in vivo
# [27] = Volume of distribution at steady state in mouse at 2 mg/kg, iv or 10 mg/kg, po by LC/MS/MS analysis; type: ADME, organism-based; details: in vivo, read-out: Vdss
# [28] = target: T3, Peroxisome proliferator-activated receptor delta (Homo sapiens) (UniProt Q03181); assay: Binding affinity to human PPARdelta
# T3 sequence (whole entry): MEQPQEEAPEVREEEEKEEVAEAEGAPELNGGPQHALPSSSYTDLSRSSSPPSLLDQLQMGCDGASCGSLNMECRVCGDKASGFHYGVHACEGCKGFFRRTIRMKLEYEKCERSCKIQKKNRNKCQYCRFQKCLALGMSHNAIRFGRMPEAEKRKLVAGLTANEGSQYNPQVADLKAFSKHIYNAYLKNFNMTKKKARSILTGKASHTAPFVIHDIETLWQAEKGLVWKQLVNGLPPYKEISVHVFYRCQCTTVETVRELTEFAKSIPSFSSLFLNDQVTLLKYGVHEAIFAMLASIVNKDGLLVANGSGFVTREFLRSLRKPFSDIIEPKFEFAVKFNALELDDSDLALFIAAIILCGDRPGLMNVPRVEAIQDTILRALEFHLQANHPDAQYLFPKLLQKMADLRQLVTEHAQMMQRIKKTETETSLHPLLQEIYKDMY
# Sequence of Cytochrome P450 3A4 (P08684 whole entry): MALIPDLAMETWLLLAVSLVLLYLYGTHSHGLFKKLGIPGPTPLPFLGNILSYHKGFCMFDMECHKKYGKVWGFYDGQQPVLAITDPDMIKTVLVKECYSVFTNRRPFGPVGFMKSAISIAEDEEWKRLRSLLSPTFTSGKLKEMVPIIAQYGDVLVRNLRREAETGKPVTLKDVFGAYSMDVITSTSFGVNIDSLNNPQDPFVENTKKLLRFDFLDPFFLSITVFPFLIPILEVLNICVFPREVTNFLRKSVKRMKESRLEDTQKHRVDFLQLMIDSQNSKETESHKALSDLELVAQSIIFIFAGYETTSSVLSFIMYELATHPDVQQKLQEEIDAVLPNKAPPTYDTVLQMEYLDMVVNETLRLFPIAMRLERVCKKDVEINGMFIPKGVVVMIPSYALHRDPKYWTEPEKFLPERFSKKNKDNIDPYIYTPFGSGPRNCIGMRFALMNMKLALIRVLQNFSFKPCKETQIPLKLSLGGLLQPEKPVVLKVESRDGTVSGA
# Sequence of Cytochrome P450 2D6 (P10635 whole entry): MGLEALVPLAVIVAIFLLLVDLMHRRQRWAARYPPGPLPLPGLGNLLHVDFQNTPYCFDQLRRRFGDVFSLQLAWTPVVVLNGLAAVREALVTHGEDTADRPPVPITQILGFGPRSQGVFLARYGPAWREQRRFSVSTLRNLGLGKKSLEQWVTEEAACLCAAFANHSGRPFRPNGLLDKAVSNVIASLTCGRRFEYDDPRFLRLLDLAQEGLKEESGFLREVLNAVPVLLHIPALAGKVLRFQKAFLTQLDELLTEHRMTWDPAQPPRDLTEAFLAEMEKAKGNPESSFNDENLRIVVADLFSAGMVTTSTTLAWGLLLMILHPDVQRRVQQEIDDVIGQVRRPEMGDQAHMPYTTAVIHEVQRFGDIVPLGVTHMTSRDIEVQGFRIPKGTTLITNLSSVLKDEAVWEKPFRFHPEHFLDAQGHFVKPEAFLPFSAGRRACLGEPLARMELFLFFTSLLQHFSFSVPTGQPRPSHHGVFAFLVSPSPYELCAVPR
# Sequence of Sodium channel protein type 5 subunit alpha (Q14524 whole entry): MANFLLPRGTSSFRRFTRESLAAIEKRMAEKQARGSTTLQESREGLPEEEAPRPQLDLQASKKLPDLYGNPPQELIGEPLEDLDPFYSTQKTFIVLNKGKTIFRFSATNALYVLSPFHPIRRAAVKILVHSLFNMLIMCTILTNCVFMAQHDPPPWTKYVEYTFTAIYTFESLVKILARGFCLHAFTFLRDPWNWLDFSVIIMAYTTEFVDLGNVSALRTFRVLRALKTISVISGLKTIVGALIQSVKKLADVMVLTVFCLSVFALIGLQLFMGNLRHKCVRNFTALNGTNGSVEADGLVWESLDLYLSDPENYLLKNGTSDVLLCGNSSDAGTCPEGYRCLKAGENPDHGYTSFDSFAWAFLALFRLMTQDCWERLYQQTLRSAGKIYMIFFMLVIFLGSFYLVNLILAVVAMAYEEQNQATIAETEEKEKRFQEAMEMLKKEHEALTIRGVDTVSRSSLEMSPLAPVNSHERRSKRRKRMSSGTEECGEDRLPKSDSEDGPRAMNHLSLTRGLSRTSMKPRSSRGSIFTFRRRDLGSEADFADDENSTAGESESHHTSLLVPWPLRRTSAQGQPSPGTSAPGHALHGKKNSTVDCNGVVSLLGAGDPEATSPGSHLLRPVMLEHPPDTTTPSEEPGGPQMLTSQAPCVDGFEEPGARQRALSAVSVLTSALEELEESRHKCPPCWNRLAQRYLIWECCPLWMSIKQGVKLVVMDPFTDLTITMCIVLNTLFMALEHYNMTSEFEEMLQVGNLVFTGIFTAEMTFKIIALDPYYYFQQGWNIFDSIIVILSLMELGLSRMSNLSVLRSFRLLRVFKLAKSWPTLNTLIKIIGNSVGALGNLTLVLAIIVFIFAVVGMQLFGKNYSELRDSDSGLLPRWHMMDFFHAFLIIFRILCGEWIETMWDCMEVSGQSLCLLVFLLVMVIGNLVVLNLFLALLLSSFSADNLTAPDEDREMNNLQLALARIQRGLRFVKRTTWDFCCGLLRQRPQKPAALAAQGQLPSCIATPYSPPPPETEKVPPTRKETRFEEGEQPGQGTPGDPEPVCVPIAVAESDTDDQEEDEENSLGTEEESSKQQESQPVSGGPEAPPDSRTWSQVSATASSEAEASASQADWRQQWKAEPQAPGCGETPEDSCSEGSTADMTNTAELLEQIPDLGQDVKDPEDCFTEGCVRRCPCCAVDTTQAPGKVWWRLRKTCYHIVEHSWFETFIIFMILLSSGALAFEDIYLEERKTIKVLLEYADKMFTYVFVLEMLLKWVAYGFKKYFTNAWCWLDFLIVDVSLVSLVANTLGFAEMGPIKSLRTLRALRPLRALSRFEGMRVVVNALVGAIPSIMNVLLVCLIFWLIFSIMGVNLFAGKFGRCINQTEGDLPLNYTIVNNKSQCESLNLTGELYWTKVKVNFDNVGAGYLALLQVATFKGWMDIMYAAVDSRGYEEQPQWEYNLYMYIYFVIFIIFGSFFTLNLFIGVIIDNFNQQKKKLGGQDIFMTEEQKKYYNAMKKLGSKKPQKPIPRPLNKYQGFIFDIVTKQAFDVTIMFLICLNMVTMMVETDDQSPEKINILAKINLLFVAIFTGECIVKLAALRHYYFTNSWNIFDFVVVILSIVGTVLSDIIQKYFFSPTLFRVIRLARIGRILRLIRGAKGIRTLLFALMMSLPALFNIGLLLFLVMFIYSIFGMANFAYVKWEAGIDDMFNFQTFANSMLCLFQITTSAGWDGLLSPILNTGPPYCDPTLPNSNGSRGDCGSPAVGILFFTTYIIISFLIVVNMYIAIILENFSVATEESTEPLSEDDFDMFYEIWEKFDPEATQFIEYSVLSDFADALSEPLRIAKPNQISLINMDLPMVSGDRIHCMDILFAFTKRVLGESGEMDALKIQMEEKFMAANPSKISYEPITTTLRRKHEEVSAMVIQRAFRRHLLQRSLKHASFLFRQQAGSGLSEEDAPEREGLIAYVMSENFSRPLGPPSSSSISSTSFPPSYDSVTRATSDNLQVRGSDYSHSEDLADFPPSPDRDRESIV
# Sequence of Cytochrome P450 2C9 (P11712 whole entry): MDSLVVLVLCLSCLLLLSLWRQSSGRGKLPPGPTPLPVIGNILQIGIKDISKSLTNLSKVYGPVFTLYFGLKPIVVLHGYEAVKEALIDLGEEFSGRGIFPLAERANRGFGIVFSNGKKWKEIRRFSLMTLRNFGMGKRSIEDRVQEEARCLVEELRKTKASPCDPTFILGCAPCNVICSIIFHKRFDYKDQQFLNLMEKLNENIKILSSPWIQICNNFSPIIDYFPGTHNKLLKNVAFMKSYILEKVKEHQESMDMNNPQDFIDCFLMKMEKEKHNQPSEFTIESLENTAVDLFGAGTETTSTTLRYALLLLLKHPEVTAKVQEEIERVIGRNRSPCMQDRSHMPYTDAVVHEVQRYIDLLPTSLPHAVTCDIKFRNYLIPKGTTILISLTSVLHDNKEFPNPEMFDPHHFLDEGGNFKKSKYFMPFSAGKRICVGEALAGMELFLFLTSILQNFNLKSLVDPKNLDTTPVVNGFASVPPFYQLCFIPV
structure (smiles),measurement,setting,value
O=C(O)CC1CCC2(CC1)CCN(c1cc(OC(F)(F)F)ccc1Cl)CC2,fraction unbound,[1],0.0028
same,INH,[2],> 48 µM
same,AUC,[3],17.5 µM·h
same,Activity,[4],Active
same,bioavailability,[5],95%
same,Activity,[6],> 10 µM
same,MRT,[7],3 h
same,AUC,[8],14.6 µM·h
same,INH,[9],> 48 µM
same,EC50,[10],33 nM
same,bioavailability,[11],100%
same,half-life,[12],9.1 h
same,fraction unbound,[13],0.0013
same,Vd,[14],1.7 L/kg
same,Activity,[15],Dose-dependent effect
same,Activity,[16],Active
same,INH,[17],> 48 µM
same,INH,[18],21 µM
same,clearance,[19],8.4 mL/min/kg
same,bioavailability,[20],77%
same,clearance,[21],9.8 mL/min/kg
same,INH,[22],13 µM
same,Activity,[23],Active
same,Activity,[24],Active
same,half-life,[25],1.4 h
same,MRT,[26],10.5 h
same,Vd,[27],8.9 L/kg
same,Activity,[28],> 10 µM
